Laboratory results from US8957190B2, “Use of heat-resistant biotin-binding protein, and solid support having the protein attached thereto” (Japan Tobacco Inc., priority 2006, dated 2015).

Tests used:
[1] = Kinetic analysis of tamavidin 2-biotin interaction using a Biacore 3000 biosensor (surface plasmon resonance); format: binding; conditions: Biacore 3000, 25° C.
Protocol: Kinetic Analysis of Tamavidin 2 (TM2)-Biotin Interaction Using a Biacore Biosensor
Highly-purified BSA (2 mg, Sigma) and NHS-biotin (1 mg, Pierce) were dissolved in 1 ml of 50 mM sodium borate pH 8.0 and incubated at 4° C. for 2 hours. The NHS-biotin (EZ-Link NHS-LC-LC-Biotin) had been dissolved in a small volume of DMSO before addition. This solution was introduced into a dialysis tube (MWCO 6-8,000) and dialyzed overnight at 4° C. against 50 mM sodium carbonate pH 6.7. The biotin-BSA conjugate thus prepared (MW 67 kDa, 30 μM) was used as a ligand (a substance immobilized on a sensor chip) for a Biacore® biosensor. On the other hand, recombinant tamavidin 2 was prepared as an analyte (a substance flowing through channels) and analyzed for intermolecular interactions using a Biacore® 3000 (a biosensor designed on the principle of surface plasmon resonance, Biacore Inc.). Biotin-BSA and BSA alone (serving as a negative control) were each immobilized on CM5 sensor chips by amine coupling techniques. Their immobilized amount was adjusted to around 200 RU. BSA-immobilized chips were placed in flow cells 1 and 3, while biotin-BSA-immobilized chips were placed in flow cells 2 and 4. Tamavidin 2 was loaded into flow cells 1 and 2, while streptavidin was loaded into flow cells 3 and 4, each being loaded at a flow rate of 20 μl/min for 2 minutes in running buffer [10 mM HEPES pH 7.4, 150 mM NaCl, 3 mM EDTA, 0.005% Surfactant 20 (Biacore Inc.)]. The samples were then monitored for their dissociation over 60 minutes. […] The dissociation constant (Kd) was determined from kd/ka.
It should be noted that when the regeneration step was skipped, Rmax (the maximum binding amount of an analyte) was reduced ever time the measurement at each concentration was made. For this reason, Rmax was calculated by local fitting for each concentration during analysis. […]

[2] = Activity measurement by means of fluorescent biotin (method of Kada et al.); format: binding; conditions: room temperature, 10 minutes
Protocol: By means of fluorescent biotin, tamavidin 2 was measured for its biotin-binding activity according to the method of Kada et al. (Biochim. Biophys. Acta., 1427: 44-48, (1999)). Solutions were prepared to contain the purified TM2 at stepwise concentrations from 0 pmol to 486 pmol in 200 μl assay buffer (50 mM NaH2PO4, 100 mM NaCl, 1 mM EDTA (pH 7.5)). These solutions were each mixed with 50 μL (1 nmol) of a 20 pmol/μL fluorescent biotin solution (biotin-4-fluorescein; Molecular Probe) and allowed to stand at room temperature for 10 minutes, followed by measuring the fluorescence intensity with a Las-3000 system (FUJIFILM). As a result, 0.274 nmol of TM2 was bound to nmol of fluorescent biotin. Namely, 3.6 mol of fluorescent biotin was bound to 1 mol of tamavidin. […] In the case of streptavidin, 3.4 mol of fluorescent biotin was bound per mol of streptavidin.

[3] = background art; cited from earlier work
salmon sperm DNA = assay: Test for non-specific binding to DNA (slot blot, antibody detection); conditions: 25 μg/mL protein, salmon sperm DNA 10 μg to 0.3 μg on membrane
Protocol: TM2 was analyzed for its non-specific binding to DNA. Serial dilutions of salmon sperm DNA (10 μg to 0.3 μg) in 2×SSC buffer were alkali-denatured and adsorbed onto a Hybond N+ membrane (Amersham Biosciences) using Bio-Dot SF (BIO-RAD). The membrane was blocked with 5×Denhardt's solution (0.1% BSA, 0.1% Ficoll, 0, 1% polyvinylpyrrolidone) and then immersed in a 25 μg/mL TM2, streptavidin or avidin solution at room temperature for 90 minutes. The membrane was then washed three times with TTBS buffer (TBS buffer containing 0.05% Tween 20) at room temperature for 5 minutes. The membrane was blocked with TBS buffer containing 0.5% skimmed milk and 0.01% Tween 20 for 1 hour. The primary antibodies used were rabbit anti-TM2 antibody (purified as described above) for TM2, rabbit anti-streptavidin antibody (SIGMA) for streptavidin, and rabbit anti-avidin antibody (Abcam) for avidin, which were diluted to give the same antibody titer before use. Antigen-antibody reaction with each primary antibody was performed overnight at room temperature. […] The membrane was washed three times with TTBS buffer at room temperature for 5 minutes, and then developed with an Alkaline Phosphatase substrate kit II, vector Black (Funakoshi Co., Ltd., Japan), followed by quantification with a Las-3000 system (FUJIFILM).

[4] = Heat resistance: protein stability (heating, SDS-PAGE band quantification); format: physicochemical; conditions: heated 20 minutes, soluble protein, SDS-PAGE, no biotin
Protocol: (§1) 0.2 μg/μL TM2 and 0.2 μg/μL streptavidin were heated in 10 μL (2 μg) volumes at room temperature, 50° C., 60° C., 70° C., 80° C., 90° C. or 99° C. for 20 minutes, followed by centrifugation at 15000 rpm for 10 minutes. Each supernatant (soluble protein) was suspended in an equal volume of 2×SDS sample buffer (100 mM Tris-HCl pH 6.8, 12% 2-mercaptoethanol, 2% SDS, 20% glycerol), heated at 95° C. for 10 minutes and then analyzed by SDS-PAGE. Protein bands were detected by CBB staining. Using a Las-3000 system (FUJIFILM), a calibration curve was prepared based on quantification markers (LMW ELECTROPHORESIS CALIBRATION KIT; Pharmacia Biotech) and used to quantify the protein bands. […]
as §1, with “Purified tamavidin 1 at a concentration of 0.2” for “0.2”, “was” for “TM2 and 0.2 μg/μL streptavidin were”

[5] = Heat resistance: fluorescent biotin-binding activity of heated biotin-binding proteins; conditions: for temperature which caused a 50% reduction in fluorescence intensity decrement compared to the unheated sample: free protein, heated 20 minutes; for reduction of binding activity to fluorescent biotin: 20 minutes
Protocol: Based on the property of fluorescent biotin to lose its fluorescence intensity when bound to a biotin-binding site in a biotin-binding protein, tamavidin 2 was compared with streptavidin and avidin for biotin-binding capacity under high temperature conditions.
About 0.25 μg/μL TM2 and streptavidin were heated at room temperature, 50° C., 60° C., 70° C., 80° C. or 90° C. for 20 minutes. Solutions were prepared to contain the heat-treated TM2 or streptavidin at stepwise concentrations from 0 μL to 27 μL in 150 μL assay buffer (50 mM NaH2PO4, 100 mM NaCl, 1 mM EDTA (pH 7.5)). These solutions were each mixed with 50 μL (250 pmol) of a 5 pmol/μL fluorescent biotin solution (biotin-4-fluorescein; Molecular Probe) and allowed to stand at room temperature for 20 minutes, followed by measuring the fluorescence intensity with a Las-3000 system (FUJIFILM).
Heat resistance test on the biotin-binding proteins was accomplished as follows. About 0.25 μg/μL biotin-binding protein was heated at room temperature, 50° C., 60° C., 70° C., 80° C. or 90° C. for 20 minutes. Solutions were prepared to contain the heated biotin-binding protein at stepwise concentrations from 0 μL to 12 μL in 150 μL assay buffer. These solutions were each mixed with 50 μL (100 pmol) of a 2 pmol/μL fluorescent biotin solution and allowed to stand at room temperature for 20 minutes, followed by measuring the fluorescence intensity at Ex=460 nm and Em=525 nm with an Infinite M200 (TECAN).

[6] = 1:1 binding model, biotin-BSA ligand

Substance | Association rate constant ks [1, 6] [M⁻¹ s⁻¹] | Dissociation rate constant kd [1, 6] [s⁻¹] | Kd ([1]; determined from kd/ka, read-out: Dissociation constant Kd) [pM] | fluorescent biotin bound per mol of protein [2] [mol] | isoelectric point [3] | non-specific binding to DNA (staining intensity versus DNA concentration) (salmon sperm DNA) | temperature which caused a 50% reduction in protein band intensity [4] [°C] | temperature which caused a 50% reduction in fluorescence intensity decrement compared to the unheated sample [5] [°C] | reduction of binding activity to fluorescent biotin ([5]; heated at 70° C.) [%] | reduction of binding activity to fluorescent biotin ([5]; heated at 80° C.) [%]
Streptavidin: biotin-binding protein derived from an actinomycete strain (Streptomyces avidinii) [reference compound] | 2.28e+06 | 2.52e-06 | 1.11 | 3.4 | around neutral pH | not strongly affected by DNA concentration | 71 | 73 | 40 | 80
avidin: albumen-derived basic glycoprotein binding biotin | – | – | – | – | exceeding 10 | DNA concentration-dependent increase in its staining intensity | – | 78 | 10 | 70
